Test results as given in article PMC6412019, “Discovery of NV-5138, the first selective Brain mTORC1 activator” (Scientific Reports, 2019).
“Also recorded” adds a separate entry of the source.

Key:
[1] = test system: mTORC1; assay: mTORC1 activation (phosphorylated S6K1 Thr389 immunoblot) in leucine-starved HEK-293T cells; type: cell-based, human
Experimental: (§1) Expression of flag-WDR24 allows for immunoprecipitation of the Sestrin2/GATOR2 complex from amino acid-starved cells with an anti-flag antibody. […] Finally, to determine whether Sestrins and the GATOR pathway are required for NV-5138 activity, HEK-293T cells null for all three Sestrin isoforms or the GATOR1 component Nprl3 were obtained.
All cell lines were cultured in DMEM supplemented with 10% FBS and maintained at 37 °C and 5% CO2. HEK-293T cells stably expressing Flag-WDR24 was generated as previously described. […] Details of reagent used for cell culture can be found in Supplementary Information.
Cell lysates were prepared as previously described. Lysates were cleared by centrifugation at 13,200 rpm at 4 °C for 8 min. For anti-FLAG IPs, the FLAG-M2 affinity gel was added to approximately 2 mg of lysates and incubated with rotation for 3 h at 4 °C. Following IP, the beads were washed one time with Triton wash buffer containing 500 mM NaCl. […] After compound incubation, IPs were collected by centrifugation. Immunoprecipitated proteins were denatured and, resolved by SDS-PAGE. Membranes were imaged using the LI-COR imaging system. Reagents and antibodies used are listed in Supplementary Information.

[2] = molecular target: T1, Sestrin1 (Homo sapiens, UniProt Q9Y6P5); assay: Cellular thermal shift assay (CETSA), intracellular Sestrin1 in HEK-293T cells; type: cell-based; details: 30 min, leucine-starved HEK293T cells, read-out: increase of melting temperature of intracellular Sestrin1
T1 sequence (Q9Y6P5 67-492 limits assumed): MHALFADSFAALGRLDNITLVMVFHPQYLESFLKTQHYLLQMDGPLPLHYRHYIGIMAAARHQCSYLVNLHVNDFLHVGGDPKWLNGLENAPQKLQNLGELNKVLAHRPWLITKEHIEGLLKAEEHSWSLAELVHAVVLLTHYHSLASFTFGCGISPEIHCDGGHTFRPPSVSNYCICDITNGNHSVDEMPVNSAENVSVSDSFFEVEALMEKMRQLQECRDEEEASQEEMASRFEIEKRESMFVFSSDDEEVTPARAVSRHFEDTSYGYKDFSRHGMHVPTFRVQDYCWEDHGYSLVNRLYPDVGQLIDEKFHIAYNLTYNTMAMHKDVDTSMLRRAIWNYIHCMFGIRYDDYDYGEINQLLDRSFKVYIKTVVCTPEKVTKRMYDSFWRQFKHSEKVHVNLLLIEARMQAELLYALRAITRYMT
Experimental: as §1
(§2) CETSA was performed as previously described. […] Cells were then collected, centrifuged for 3 min at 300 g at room-temperature (RT), washed with PBS, centrifuged again, and finally resuspended in 1 ml of RT PBS containing EDTA-free protease-inhibitor tablets (Roche). 100 µl of each cell suspension was heated at the noted temperature for 3 min, samples were then placed on the bench at RT for 3 min before being flash-frozen in liquid nitrogen. To lyse the cells, samples were put through two cycles of freeze-thawing followed by centrifugation at 20,000 g for 20 min at 4 °C. 80 µl of the resulting supernatant was denatured and, resolved by SDS-PAGE. Membranes were imaged using the LI-COR imaging system. Antibodies used are listed in Supplementary Information.

[3] = molecular target: T2, BCAT2 (Homo sapiens, UniProt O15382); assay: BCAT enzymatic assay (substrate test), BCAT2; type: biochemical; details: NADH oxidation at 340 nm; tested up to 1.5 mM
T2 construct: purchased OriGene TP300625
T2 sequence (O15382 28-392): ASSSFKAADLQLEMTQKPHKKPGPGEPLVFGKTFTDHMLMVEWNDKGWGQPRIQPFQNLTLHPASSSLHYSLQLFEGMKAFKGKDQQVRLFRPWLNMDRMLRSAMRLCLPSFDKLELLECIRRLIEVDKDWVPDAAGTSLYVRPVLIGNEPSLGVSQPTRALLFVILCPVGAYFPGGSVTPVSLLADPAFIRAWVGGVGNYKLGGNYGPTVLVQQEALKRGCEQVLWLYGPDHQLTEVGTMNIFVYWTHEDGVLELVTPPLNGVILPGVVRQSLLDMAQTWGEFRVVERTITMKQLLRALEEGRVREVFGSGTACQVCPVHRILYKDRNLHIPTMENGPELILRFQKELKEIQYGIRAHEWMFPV
Experimental: BCAT exists in two isoforms, mitochondrial BCAT2 which is ubiquitously expressed, and cytosolic BCAT1, which is predominantly expressed in embryonic tissues and the adult brain. To determine whether NV-5138 is a substrate for BCAT isoforms, we established an in vitro enzymatic assay using purified BCAT1 and BCAT2 and performed the assay in the forward direction as described. […] The disappearance of absorbance at 340 nm due to NADH oxidation is measured continuously over time.
The assay buffer was dispensed into a 96-well plate and brought up to 37 °C for 10 min before adding BCAT1 or BCAT2 (72 ng) in 0.1 M potassium phosphate buffer. Absorbance at 340 nm was then read every minute for 30 min at RT using an Envision plate reader. Source of each reagents used can be found in Supplementary Information.

[4] = molecular target: T3, Sestrin3 (Homo sapiens, UniProt P58005); assay: Cellular thermal shift assay (CETSA), intracellular Sestrin3 in HEK-293T cells; type: cell-based; details: 300 µM, 30 min, leucine-starved HEK293T cells
T3 construct: endogenous in cells; host or cells: HEK-293T
T3 sequence (P58005 1-492): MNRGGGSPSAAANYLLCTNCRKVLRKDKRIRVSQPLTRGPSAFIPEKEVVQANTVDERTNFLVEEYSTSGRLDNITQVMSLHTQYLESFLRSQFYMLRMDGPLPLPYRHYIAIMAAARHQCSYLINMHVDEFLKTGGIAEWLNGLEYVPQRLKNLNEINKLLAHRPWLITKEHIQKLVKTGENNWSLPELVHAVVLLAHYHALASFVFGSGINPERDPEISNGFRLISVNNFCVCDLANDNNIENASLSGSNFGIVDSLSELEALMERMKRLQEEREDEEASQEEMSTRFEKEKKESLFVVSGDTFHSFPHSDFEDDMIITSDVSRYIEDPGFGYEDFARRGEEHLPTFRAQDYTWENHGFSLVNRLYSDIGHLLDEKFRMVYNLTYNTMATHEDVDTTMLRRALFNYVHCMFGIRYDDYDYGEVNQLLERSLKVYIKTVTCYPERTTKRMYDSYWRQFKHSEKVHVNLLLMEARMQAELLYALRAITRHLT
Experimental: as §1, §2

Compound	mTORC1 activation (pS6K1) ([1]; leucine-starved unedited HEK-293T cells)	ΔTm at 300 µM [2] [°C]	transamination by BCAT2 [3]	change of melting temperature of intracellular Sestrin3 [4]	mTORC1 activation (pS6K1) ([1]; leucine-starved HEK-293T cells null for all three Sestrin isoforms)	mTORC1 activation (pS6K1) ([1]; leucine-starved HEK-293T cells null for the GATOR1 component Nprl3)
CC(C)(C[C@H](N)C(=O)O)C(F)F [NV-5138, (S)-2-amino-5,5-difluoro-4,4-dimethylpentanoic acid]	activates mTORC1	~2	no decrease in absorption at 340 nm; also recorded: did not observe any transamination	neither NV-5138 nor leucine changed the melting temperature; also recorded: does not impact the melting temperature	–	–
CC(C)C[C@H](N)C(=O)O [Leucine, L-leucine, reference compound]	–	~2	transaminated by BCAT1 and BCAT2	neither NV-5138 nor leucine changed the melting temperature	refractory	refractory
